Data published in patent publication US20210253572A1, “IMIDAZO[1,2-B]PYRIDAZINES AS TRK INHIBITORS” (BenevolentAl Bio Limited, priority 2018, published 2021).

What was measured:
Assay type in all cases: biochemical
TrkC = biological target: T1, TrkC (Homo sapiens, UniProt Q16288); assay: HTRF KinEASE kinase assay, recombinant Human TRK enzyme, TrkC (NTRK3); details: NTRK3 10 nM, read-out: TrkC Enz
T1 construct: purchased Invitrogen
Protocol: (§1) A suitable assay for determining the Trk inhibition activity of a compound is detailed herein below.
(§2) To determine the IC50 of small molecule compounds for the Human TRK receptors, HTRF® KinEASE™ kinase kits from Cisbio were used. Assays were carried out in low volume, black 384-well plates.
(§3) Recombinant Human TRK enzymes (Invitrogen) were incubated in the presence or absence of the compound (11-point dose response with FAC as 10 μM) for 30 minutes at 23° C. Kinase reaction was started by addition of ATP to a mixture containing the enzyme (NTRK1-4 nM, NTRK2-1 nM, NTRK3-10 nM) and substrate (1 μM). Kinase reaction was allowed to carry on for 10 to 45 minutes at 23° C. after which it was stopped by addition of the detection mix (supplied by vendor) containing EDTA, TK-Ab-labelled with Eu^3+-cryptate (1:200 dilutions) and Streptavidin-XL665 (250 nM). Assay plates were incubated in this detection mix for 60 minutes at 23° C. The resulting TR-FRET signal, calculated as the fluorescence ratio at 665/620 nm, was read on an Envision and was proportional to the level of phosphorylation of the peptide in the presence or absence of the compound. The uniformity of the plates were assured with Z′ value [1−{3*(SDHPE+SDZPE)/(ZPE−HPE)}]. The percent (%) effect i.e. Inhibition of compound was calculated in comparison to the signal in the positive (HPE) and negative control (ZPE) wells within each assay plate. The endpoint value % Inhibition for the Standard compound was evaluated in each experiment as a quality control measure. IC50 was determined by plotting compound inhibition at respective dose in Graphpad prism5 using four parameter logistic curve fit.

TrkA = biological target: T2, TrkA (Homo sapiens, UniProt P04629); assay: HTRF KinEASE kinase assay, recombinant Human TRK enzyme, TrkA (NTRK1); details: NTRK1 4 nM, read-out: TrkA Enz
T2 construct: purchased Invitrogen
Protocol: as §1, §2, §3

TrkB = biological target: T3, TrkB (Homo sapiens, UniProt Q16620); assay: HTRF KinEASE kinase assay, recombinant Human TRK enzyme, TrkB (NTRK2); details: NTRK2 1 nM, read-out: TrkB Enz
T3 construct: purchased Invitrogen
Protocol: as §1, §2, §3

T2 sequence (P04629 33-796): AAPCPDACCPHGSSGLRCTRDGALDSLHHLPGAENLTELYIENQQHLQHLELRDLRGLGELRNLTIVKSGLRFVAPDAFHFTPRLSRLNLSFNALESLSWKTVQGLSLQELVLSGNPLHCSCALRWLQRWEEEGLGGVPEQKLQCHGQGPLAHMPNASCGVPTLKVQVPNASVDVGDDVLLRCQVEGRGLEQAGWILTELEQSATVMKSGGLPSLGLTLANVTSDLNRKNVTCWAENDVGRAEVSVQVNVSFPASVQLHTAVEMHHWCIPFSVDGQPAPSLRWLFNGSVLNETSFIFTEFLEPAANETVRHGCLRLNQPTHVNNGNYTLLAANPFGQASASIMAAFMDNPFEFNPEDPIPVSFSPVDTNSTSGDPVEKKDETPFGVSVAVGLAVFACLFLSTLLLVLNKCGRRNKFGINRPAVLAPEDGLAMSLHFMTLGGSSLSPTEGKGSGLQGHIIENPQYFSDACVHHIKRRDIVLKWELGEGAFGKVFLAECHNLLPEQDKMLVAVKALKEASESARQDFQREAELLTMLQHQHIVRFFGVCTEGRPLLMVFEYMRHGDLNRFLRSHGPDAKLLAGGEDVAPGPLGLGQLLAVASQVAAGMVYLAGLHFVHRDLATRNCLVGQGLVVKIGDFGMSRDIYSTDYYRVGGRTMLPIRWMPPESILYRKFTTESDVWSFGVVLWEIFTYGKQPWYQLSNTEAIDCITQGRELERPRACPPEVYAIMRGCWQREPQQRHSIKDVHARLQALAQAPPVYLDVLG
T3 sequence (Q16620 32-822): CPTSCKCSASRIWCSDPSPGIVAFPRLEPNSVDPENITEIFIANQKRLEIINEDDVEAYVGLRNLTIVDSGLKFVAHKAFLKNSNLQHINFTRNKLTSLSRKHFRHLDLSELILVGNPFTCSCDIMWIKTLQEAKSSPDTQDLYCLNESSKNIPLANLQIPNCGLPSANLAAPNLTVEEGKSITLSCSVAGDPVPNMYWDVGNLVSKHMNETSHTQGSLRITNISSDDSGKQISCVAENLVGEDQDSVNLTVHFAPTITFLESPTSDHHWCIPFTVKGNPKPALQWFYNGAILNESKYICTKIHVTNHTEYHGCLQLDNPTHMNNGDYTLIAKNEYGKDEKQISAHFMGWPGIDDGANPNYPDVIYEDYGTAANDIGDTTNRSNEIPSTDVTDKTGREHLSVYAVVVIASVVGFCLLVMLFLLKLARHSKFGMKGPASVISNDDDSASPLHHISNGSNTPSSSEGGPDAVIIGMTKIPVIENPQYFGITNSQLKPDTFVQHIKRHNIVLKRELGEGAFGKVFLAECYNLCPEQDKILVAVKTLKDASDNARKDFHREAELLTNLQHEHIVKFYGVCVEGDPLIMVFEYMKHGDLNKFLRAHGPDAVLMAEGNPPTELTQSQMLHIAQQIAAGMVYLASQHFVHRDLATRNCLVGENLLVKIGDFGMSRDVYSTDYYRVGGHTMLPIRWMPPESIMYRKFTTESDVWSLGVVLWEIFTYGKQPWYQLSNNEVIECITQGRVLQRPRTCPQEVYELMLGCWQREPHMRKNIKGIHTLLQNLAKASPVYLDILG
T1 sequence (Q16288 32-839): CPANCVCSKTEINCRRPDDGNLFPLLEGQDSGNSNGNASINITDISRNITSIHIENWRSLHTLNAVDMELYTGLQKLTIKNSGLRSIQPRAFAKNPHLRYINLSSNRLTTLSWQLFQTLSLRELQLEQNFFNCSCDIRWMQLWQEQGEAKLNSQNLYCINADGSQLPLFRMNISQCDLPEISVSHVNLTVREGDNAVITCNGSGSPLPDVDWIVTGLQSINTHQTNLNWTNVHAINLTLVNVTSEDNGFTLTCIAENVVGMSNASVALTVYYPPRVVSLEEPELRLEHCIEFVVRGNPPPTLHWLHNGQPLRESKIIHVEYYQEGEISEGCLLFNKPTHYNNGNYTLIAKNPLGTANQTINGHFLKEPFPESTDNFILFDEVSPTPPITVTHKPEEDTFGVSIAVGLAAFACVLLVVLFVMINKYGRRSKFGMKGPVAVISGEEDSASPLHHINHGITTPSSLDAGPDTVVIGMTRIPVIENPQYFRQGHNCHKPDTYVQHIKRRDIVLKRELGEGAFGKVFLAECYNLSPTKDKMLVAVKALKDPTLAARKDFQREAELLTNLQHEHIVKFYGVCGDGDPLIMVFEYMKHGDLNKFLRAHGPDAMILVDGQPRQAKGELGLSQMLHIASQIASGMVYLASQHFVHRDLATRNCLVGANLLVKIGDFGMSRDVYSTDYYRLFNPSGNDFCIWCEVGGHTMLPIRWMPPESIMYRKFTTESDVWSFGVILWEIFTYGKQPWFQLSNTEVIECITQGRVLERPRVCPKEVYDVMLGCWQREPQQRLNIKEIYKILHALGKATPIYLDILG

Row | Compound | IC50 (TrkC) | IC50 (TrkA) | IC50 (TrkB)
1 | CCCCC(=O)Oc1cccc(CN2CC[C@H](NC(=O)c3cnc4ccc(N5C[C@@H](F)C[C@@H]5c5cc(F)ccc5SC)nn34)C2)c1 [Example 9, 3-{[(3S)-3-{6-[(2R,4S)-4-fluoro-2-[5-fluoro-2-(methylsulfanyl)phenyl]pyrrolidin-1-yl]imidazo[1,2-b]pyridazine-3-amido}pyrrolidin-1-yl]methyl}phenyl Pentanoate] | 8.43 nM | 3.81 nM | 8.76 nM
2 | CSc1cc(F)cc([C@H]2C[C@H](F)CN2c2ccc3ncc(C(=O)NC4CCN(Cc5ccc(F)c(O)c5)CC4)n3n2)c1 [Example 21, 6-[(2R,4S)-4-fluoro-2-[3-fluoro-5-(methylsulfanyl)phenyl]pyrrolidin-1-yl]-N-{1-[(4-fluoro-3-hydroxyphenyl)methyl]piperidin-4-yl}imidazo[1,2-b]pyridazine-3-carboxamide] | 1.97 nM | 1.48 nM | 1.5 nM
3 | CSc1cc(F)cc([C@H]2C[C@H](F)CN2c2ccn3ncc(C(=O)NC4CCN(Cc5cccc(O)c5)CC4)c3n2)c1 [Example 31, 5-[(2R,4S)-4-fluoro-2-[3-fluoro-5-(methylsulfanyl)phenyl]pyrrolidin-1-yl]-N-{1-[(3-hydroxyphenyl)methyl]piperidin-4-yl}pyrazolo[1,5-a]pyrimidine-3-carboxamide] | 1.38 nM | 1.38 nM | 0.86 nM
4 | CSc1ccc(F)cc1[C@H]1C[C@H](F)CN1c1ccc2ncc(C(=O)NCc3ccc(F)c(O)c3)n2n1 [Example 14, 6-[(2R,4S)-4-fluoro-2-[5-fluoro-2-(methylsulfanyl)phenyl]pyrrolidin-1-yl]-N-[(4-fluoro-3-hydroxyphenyl)methyl]imidazo[1,2-b]pyridazine-3-carboxamide] | 1.47 nM | 0.95 nM | 0.57 nM
5 | CSc1cc(F)cc([C@H]2C[C@H](F)CN2c2ccc3ncc(C(=O)N[C@H]4COCCN(Cc5ccc(F)c(O)c5)C4)n3n2)c1 (single isomer, unassigned) [Example 25] | 8.72 nM | 6.1 nM | 11.4 nM
6 | CSc1cc(F)cc([C@H]2C[C@H](F)CN2c2ccc3ncc(C(=O)NC4CN(Cc5ccc(F)c(O)c5)C4)n3n2)c1 [Example 19, 6-[(2R,4S)-4-fluoro-2-[3-fluoro-5-(methylsulfanyl)phenyl]pyrrolidin-1-yl]-N-{1-[(4-fluoro-3-hydroxyphenyl)methyl]azetidin-3-yl}imidazo[1,2-b]pyridazine-3-carboxamide] | 2.99 nM | 2.46 nM | 3.04 nM
7 | CSc1cc(F)cc([C@H]2CCCN2c2ccc3ncc(C(=O)N[C@H]4CCN(Cc5ccc(F)c(O)c5)C4)n3n2)c1 [Example 15, N-[(3S)-1-[(4-fluoro-3-hydroxyphenyl)methyl]pyrrolidin-3-yl]-6-[(2R)-2-[3-fluoro-5-(methylsulfanyl)phenyl]pyrrolidin-1-yl]imidazo[1,2-b]pyridazine-3-carboxamide] | 8.3 nM | 4.86 nM | 9.15 nM
8 | CSc1cc(F)cc([C@H]2C[C@H](F)CN2c2ccc3ncc(C(=O)N[C@H]4CCN(C(=O)c5cccc(O)c5)C4)n3n2)c1 [Example 27, 6-[(2R,4S)-4-fluoro-2-[3-fluoro-5-(methylsulfanyl)phenyl]pyrrolidin-1-yl]-N-[(3S)-1-(3-hydroxybenzoyl)pyrrolidin-3-yl]imidazo[1,2-b]pyridazine-3-carboxamide] | 1.87 nM | 1.34 nM | 1.01 nM
9 | CSc1ccc(F)cc1[C@H]1C[C@H](F)CN1c1ccc2ncc(C(=O)N[C@H]3CCN(Cc4ccc(F)c(O)c4)C3)n2n1 [Example 11, 6-[(2R,4S)-4-fluoro-2-[5-fluoro-2-(methylsulfanyl)phenyl]pyrrolidin-1-yl]-N-[(3S)-1-[(4-fluoro-3-hydroxyphenyl)methyl]pyrrolidin-3-yl]imidazo[1,2-b]pyridazine-3-carboxamide] | 2.46 nM | 1.57 nM | 2.27 nM
10 | CO[C@H]1CN(Cc2ccc(F)c(O)c2)C[C@@H]1NC(=O)c1cnc2ccc(N3C[C@@H](F)C[C@@H]3c3cc(F)cc(SC)c3)nn12 [Example 23, 6-[(2R,4S)-4-fluoro-2-[3-fluoro-5-(methylsulfanyl)phenyl]pyrrolidin-1-yl]-N-[(3S,4S)-1-[(4-fluoro-3-hydroxyphenyl)methyl]-4-methoxypyrrolidin-3-yl]imidazo[1,2-b]pyridazine-3-carboxamide] | 6.85 nM | 2.37 nM | 10.3 nM
11 | CSc1ccc(F)cc1[C@H]1CCCN1c1ccc2ncc(C(=O)NC3CN(Cc4ccc(F)c(O)c4)C3)n2n1 [Example 1, 6-[(2R)-2-[5-fluoro-2-(methylsulfanyl)phenyl]pyrrolidin-1-yl]-N-{1-[(4-fluoro-3-hydroxyphenyl)methyl]azetidin-3-yl}imidazo[1,2-b]pyridazine-3-carboxamide] | 2.81 nM | 1.77 nM | 2.06 nM
12 | CSc1cc(F)cc([C@H]2C[C@H](F)CN2c2ccc3ncc(C(=O)N[C@H]4CCN(Cc5ccc(F)c(O)c5)C4)n3n2)c1 [Example 18, 6-[(2R,4S)-4-fluoro-2-[3-fluoro-5-(methylsulfanyl)phenyl]pyrrolidin-1-yl]-N-[(3S)-1-[(4-fluoro-3-hydroxyphenyl)methyl]pyrrolidin-3-yl]imidazo[1,2-b]pyridazine-3-carboxamide] | 5.19 nM | 2.87 nM | 7.82 nM
13 | CSc1ccc(F)cc1[C@H]1C[C@H](F)CN1c1ccc2ncc(C(=O)NC3CN(Cc4ccc(F)c(O)c4)C3)n2n1 [Example 4, 6-[(2R,4S)-4-fluoro-2-[5-fluoro-2-(methylsulfanyl)phenyl]pyrrolidin-1-yl]-N-{1-[(4-fluoro-3-hydroxyphenyl)methyl]azetidin-3-yl}imidazo[1,2-b]pyridazine-3-carboxamide] | 1.93 nM | 1.75 nM | 1.05 nM
14 | CCCCOC(=O)c1cccc(CN2CC[C@H](NC(=O)c3cnc4ccc(N5C[C@@H](F)C[C@@H]5c5cc(F)cc(SC)c5)nn34)C2)c1 [Example 30, Butyl 3-{[(3S)-3-{6-[(2R,4S)-4-fluoro-2-[3-fluoro-5-(methylsulfanyl)phenyl]pyrrolidin-1-yl]imidazo[1,2-b]pyridazine-3-amido}pyrrolidin-1-yl]methyl}benzoate] | 22.4 nM | 22.4 nM | 14.9 nM
15 | COC(=O)c1cccc(CN2CC[C@H](NC(=O)c3cnc4ccc(N5C[C@@H](F)C[C@@H]5c5cc(F)ccc5SC)nn34)C2)c1 [Example 10, Methyl 3-{[(3S)-3-{6-[(2R,4S)-4-fluoro-2-[5-fluoro-2-(methylsulfanyl)phenyl]pyrrolidin-1-yl]imidazo[1,2-b]pyridazine-3-amido}pyrrolidin-1-yl]methyl}benzoate] | 2.12 nM | 1.18 nM | 2.15 nM
16 | COC(=O)c1cccc(CN2CC[C@H](NC(=O)c3cnc4ccc(N5C[C@@H](F)C[C@@H]5c5cc(F)cc(SC)c5)nn34)C2)c1 [Example 16, Methyl 3-{[(3S)-3-{6-[(2R,4S)-4-fluoro-2-[3-fluoro-5-(methylsulfanyl)phenyl]pyrrolidin-1-yl]imidazo[1,2-b]pyridazine-3-amido}pyrrolidin-1-yl]methyl}benzoate] | 3.28 nM | 1.73 nM | 4.54 nM
17 | CSc1ccc(F)cc1[C@H]1C[C@H](F)CN1c1ccc2ncc(C(=O)NC3CCN(Cc4cccc(O)c4)CC3)n2n1 [Example 3, 6-[(2R,4S)-4-fluoro-2-[5-fluoro-2-(methylsulfanyl)phenyl]pyrrolidin-1-yl]-N-{1-[(3-hydroxyphenyl)methyl]piperidin-4-yl}imidazo[1,2-b]pyridazine-3-carboxamide] | 1.19 nM | 0.92 nM | 0.79 nM
18 | CSc1ccc(F)cc1[C@H]1C[C@H](F)CN1c1ccc2ncc(C(=O)NCc3cccc(O)c3)n2n1 [Example 7, 6-[(2R,4S)-4-fluoro-2-[5-fluoro-2-(methylsulfanyl)phenyl]pyrrolidin-1-yl]-N-[(3-hydroxyphenyl)methyl]imidazo[1,2-b]pyridazine-3-carboxamide] | 1.25 nM | 0.9 nM | 0.49 nM
19 | CSc1cc(F)cc([C@H]2C[C@H](F)CN2c2ccc3ncc(C(=O)NC4CCN(Cc5cccc(O)c5)CC4)n3n2)c1 [Example 22, 6-[(2R,4S)-4-fluoro-2-[3-fluoro-5-(methylsulfanyl)phenyl]pyrrolidin-1-yl]-N-{1-[(3-hydroxyphenyl)methyl]piperidin-4-yl}imidazo[1,2-b]pyridazine-3-carboxamide] | 2.13 nM | 1.4 nM | 2.01 nM
20 | CSc1cc(F)cc([C@H]2C[C@H](F)CN2c2ccc3ncc(C(=O)NCc4ccc(F)c(O)c4)n3n2)c1 [Example 26, 6-[(2R,4S)-4-fluoro-2-[3-fluoro-5-(methylsulfanyl)phenyl]pyrrolidin-1-yl]-N-[(4-fluoro-3-hydroxyphenyl)methyl]imidazo[1,2-b]pyridazine-3-carboxamide] | 2.97 nM | 1.87 nM | 1.85 nM
